Laboratory results taken from US9132071B2, “Compositions containing quaternary ammonium compounds” (SANTEN SAS, priority 2006, dated 2015).

Legend:
[1] = Emulsion zeta potential by electrophoretic mobility; assay type: physicochemical; details: 25° C., dilution 1:250
Method: Zeta potential can be measured by a zetameter such as Zetasizer 2000, Malvern Instruments Ltd, UK. The zeta potential of the emulsion droplet surface is determined by electrophoretic mobility. Measurements are performed at 25° C. following dilution at 1:250 of the emulsion in double distilled water. The electrophoretic mobility is converted into zeta potential values through the Smoluchowsky equation.

[2] = Emulsion droplet size by dynamic light scattering; assay type: physicochemical; details: 25° C., diluted in double distilled water
Method: Measurements are performed at 25° C. following dilution of the emulsion in double distilled water.

[3] = system: white male New Zealand rabbits; assay: Ocular irritation, adaptation of the Draize test; assay type: in vivo; details: BAK C16 within an emulsion; 50 μL instilled, rabbit eye; FIG. 2
Method: The ocular irritation of the emulsions and solutions has been evaluated using an adaptation of the Draize test on white male New Zealand rabbits (2.75-3.00 kg). Fifty μL of emulsion or solution were instilled unilaterally and 50 μL of NaCl 0.9% in the other eye of the three rabbits per group. General aspect assessment of the animals was performed (behavior, blinking, itching of the eye with forelegs) as well as eye tissue evaluation (conjunctiva, cornea, iris) after instillation, 1, 24, 48 and 72 hours. Observations were scored according to the Draize test protocol.

Emulsion droplet size ([2]; emulsion containing 0.01% QA) [nm]	Emulsion droplet size ([2]; emulsion containing 0.02% QA) [nm]	Emulsion droplet size ([2]; emulsion containing 0.04% QA) [nm]	Emulsion droplet size ([2]; emulsion containing 0.1% QA) [nm]	Emulsions zeta potential ([1]; emulsion containing 0.01% QA)	Emulsions zeta potential ([1]; emulsion containing 0.02% QA)	Emulsions zeta potential ([1]; emulsion containing 0.04% QA)	Emulsions zeta potential ([1]; emulsion containing 0.1% QA)	Structure (SMILES)	Emulsions zeta potential ([1]; emulsion containing 0.0025% QA)	Emulsions zeta potential ([1]; emulsion containing 0.005% QA)	Emulsion droplet size ([2]; emulsion containing 0.0025% QA) [nm]	Emulsion droplet size ([2]; emulsion containing 0.005% QA) [nm]	Emulsion droplet size ([2]; emulsion containing 0.001% QA) [nm]	Emulsions zeta potential ([1]; emulsion containing 0.001% QA)	Ocular irritation (toxicity), Draize score [3]
								CCCCCCCCCCCC[N+](C)(C)C.[Br-] [ATAB C12, lauryl trimethyl ammonium bromide]	−35.5 mV	−14.6 mV					
								CCCCCCCCCCCCCCCC[N+](C)(C)C.[Br-] [ATAB C16, cetyl trimethyl ammonium bromide]	+11.9 mV	+20.2 mV	222	212			
190	155	238	185	+22.9 mV	+28.4 mV	+39.3 mV	+44.5 mV	CCCCCCCCCCCCCC[N+](C)(C)Cc1ccccc1 [BAK C14, myristalkonium chloride]	+11.4 mV	+19.6 mV	204	190			
263	230	225	180	+4.2 mV	+7.9 mV	+16.8 mV	+23.8 mV	CCCCCCCCCCCC[N+](C)(C)Cc1ccccc1 [BAK C12, benzododecinium chloride]		−6.9 mV		198			

Structure (SMILES)	Emulsion droplet size ([2]; emulsion containing 0.01% QA) [nm]	Emulsion droplet size ([2]; emulsion containing 0.02% QA) [nm]	Emulsion droplet size ([2]; emulsion containing 0.04% QA) [nm]	Emulsion droplet size ([2]; emulsion containing 0.1% QA) [nm]	Emulsions zeta potential ([1]; emulsion containing 0.01% QA)	Emulsions zeta potential ([1]; emulsion containing 0.02% QA)	Emulsions zeta potential ([1]; emulsion containing 0.04% QA)	Emulsions zeta potential ([1]; emulsion containing 0.1% QA)	Emulsions zeta potential ([1]; emulsion containing 0.0025% QA)	Emulsions zeta potential ([1]; emulsion containing 0.005% QA)	Emulsion droplet size ([2]; emulsion containing 0.0025% QA) [nm]	Emulsion droplet size ([2]; emulsion containing 0.005% QA) [nm]	Emulsion droplet size ([2]; emulsion containing 0.001% QA) [nm]	Emulsions zeta potential ([1]; emulsion containing 0.001% QA)	Ocular irritation (toxicity), Draize score [3]
CCCCCCCCCCCCCCCC[N+](C)(C)Cc1ccccc1 [BAK C16, cetylkonium chloride]	180	155	188	183	+36.7 mV	+44.1 mV	+47.2 mV	+48.9 mV	+24.4 mV	+31.4 mV	210	148	220	+16.2 mV	unexpected decrease of its toxicity
